We go through four compounds from article PMC11413854, “Reversible Control of Native GluN2B-Containing NMDA Receptors with Visible Light” (ACS Chemical Neuroscience, 2024).

The nature of the data set: Photostationary state (cis/trans) composition in solution by HPLC, UV-vis or 1H NMR. Format: physicochemical. As to conditions: for % of trans in solution: Fig. 5J; for % of cis in solution: Figure 5E. The text has this:
To characterize the photochemical properties of OptoNAM-3, we focused on the three key properties allowing the use of azobenzenes in biological systems: (i) wavelengths for trans-to-cis and cis-to-trans conversions; (ii) compound thermalstability, i.e., half-life of the cis isomer in the dark; and (iii) fatigability, i.e., the number of illumination cycles that the molecule can undergo without degradation. To this aim, we acquired UV–visible absorption spectra of OptoNAM-3 diluted in Xenopus oocyte recording solution (Ringer pH 7.3; see Methods) either in the dark (absence of illumination) or after illumination by light wavelengths ranging from 350 to 580 nm (Figures 2B and S1M). In the dark (black curve in Figure 2B), the spectrum was characteristic of a trans isomer.[32] Application of UV light at a wavelength close to the main absorption peak of the trans form (365 or 350 nm) gave a completely different spectrum (violet curves in Figure 2B), characteristic of azobenzenes in their cis configuration.[32] HPLC analysis of OptoNAM-3 in solution identified photostationary states (PSS) containing 100% trans in the dark, 82% cis and 18% residual trans after illumination at 365 nm (365 nm PSS, violet curve in Figure 2C), and 91% cis and 9% residual trans after illumination at 350 nm (350 nm PSS, lavender curve in Figure 2C). […] Irradiation of OptoNAM-3 365 nm PSS with wavelengths from 435 to 550 nm gave equivalent cis-to-trans conversions with 435 and 550 nm yielding slightly stronger conversions (∼70% trans after illumination at 435 and 550 nm calculated from UV–visible spectra at λtrans = 329 nm, Figures 2B and S1N; 550 nm PSS of 69% trans and 31% cis measured by HPLC, Figure 2C, green trace). 550 nm was chosen as the optimal wavelength since green light is less harmful for cells than lights of shorter wavelengths. We then tested the thermal stability of the cis form in the dark (in the absence of illumination). […] This very high stability is interesting because it avoids the prolonged use of light to maintain OptoNAM-3 in the desired configuration. OptoNAM-3 could finally endure many illumination cycles without degradation (Figure 2E).
UV–vis absorbance spectra were measured from in 1 cm long quartz cuvettes on a NanoPhotometer NP80 spectrometer (Implen, Germany). We used solutions of 10, 50, or 100 μM OptoNAMs diluted in Ringer at pH 7.3 (for TEVC extracellular recording solution, see below) from the 50 mM stock solution in DMSO. Photostationary states of OptoNAMs in Ringer for different illumination wavelengths were obtained by continuous illumination with multiwavelength LEDs (pE-2 and pE-4000, CoolLED, UK [power ∼75 mW]) or photochemical reactor RPR-100 Rayonet US (power ∼2 mW) for 350 nm, until no further change in the absorption spectra could be observed. For all irradiation wavelengths tested, 10 min illumination was sufficient to reach the steady state.
The cis–trans compositions of OptoNAM-3 in the dark and after illumination by 365, 350, and 550 nm were determined by HPLC using the relative integrated areas of the cis and trans peaks at the isosbestic point at 280 nm, […], considering that the sum of integrated area for two peaks is 100%. We checked that ratios measured at the isosbestic point at 390 nm were similar. Analytical HPLC was performed on an Agilent 1200 series equipped with a quaternary pump using a Nucleodur C18 HTech column from Macherey-Nagel Inc. (particle size 3 μm, 150 × 4.6 mm column). The compounds were eluted with a flow of 1 mL/min using a gradient of acetonitrile (0–100% over 15 min) in water, with both solvents containing 0.1% TFA. Detection was performed at 220, 280, and 390 nm.
The dark and 365 nm PSS were furthermore characterized by ^1H NMR spectroscopy with the OptoNAMs diluted in DMSO-d6 and the relative abundance of trans and cis isomers quantified using ^1H NMR spectra. […]

The mark [1] stands for this setting: physiological buffer, UV-visible, measured at λtrans.
The mark [2] stands for this setting: HPLC, physiological aqueous buffer.
Setting [3] is: in solution, UV-visible spectra.
The mark [4] stands for this setting: in solution, calculated from UV-visible spectra at 329 nm.

Each structure is given as a SMILES string. Several values for one entry are separate records, joined by “and”; a condition that tells them apart may be missing. Equal values may be shown once.

Take `Nc1ccnc(/N=N/c2ccccc2)c1` [OptoNAM-1, (E)-2-(phenyldiazenyl)pyridin-4-amine]: the “trans after 440 nm irradiation of the 365 nm PSS” value under setting [1] is recorded as ~ 75%.

Take `Cc1cc(N)nc(/N=N/c2ccccc2)c1` [OptoNAM-2, (E)-4-methyl-6-(phenyldiazenyl)pyridin-2-amine]: the “trans after 490 nm irradiation of the 365 nm PSS” value under setting [1] was ~ 52%.

On to `c1ccc(/N=N/c2ccc(CCNc3ccncc3)cc2)cc1` [OptoNAM-3, (E)-N-(4-(Phenyldiazenyl)phenethyl)pyridin-4-amine], for which the “365 nm PSS, cis, in DMSO” value (DMSO, 1H NMR) is given as 90%. Moreover, under “365 nm”, the “% of trans in solution” value was 18.030% and the “% of cis in solution” value is 82.000%. In addition, under “385 nm”, the “% of trans in solution” value stood at 53.274% and the “% of cis in solution” value was 48.439%. For the same compound, under “435 nm”, the “% of trans in solution” value turned out to be 71.738% and the “% of cis in solution” value was found to be 30.261%. Where the note is “460 nm”, the “% of trans in solution” value is given as 68.781% and the “% of cis in solution” value is listed as 30.902%. Also, where the note is “490 nm”, the “% of trans in solution” value was 68.847% and the “% of cis in solution” value came to 32.185%. Where the note is “525 nm”, the “% of trans in solution” value is reported as 62.601% and the “% of cis in solution” value is recorded as 29.192%. Under “550 nm”, the “% of trans in solution” value stood at 70.739% and the “% of cis in solution” value was found to be 27.267%. Also, for the setting “580 nm”, the “% of trans in solution” value came to 68.208% and the “% of cis in solution” value turned out to be 25.128%. Also, under “HPLC”, the “550 nm PSS, cis” value was 31% and the “550 nm PSS, trans” value came to 69%. Besides, the “PSS in the dark, trans” value (HPLC, aqueous solution) came to 100%. Also, under setting [2], the “350 nm PSS, cis” value was 91%; the “350 nm PSS, residual trans” value is given as 9%; the “365 nm PSS, residual trans” value was found to be 18%. Besides, the “365 nm PSS, cis” value (HPLC, physiological aqueous buffer (free OptoNAM-3)) turned out to be 82%. Besides, under setting [3], the “cis after 460 nm illumination of the dark PSS” value is ~31%; the “cis after 550 and 580 nm illumination of the dark PSS” value is reported as ~30%; the “trans after 460 nm illumination of the 365 nm PSS” value was 69%. For the same compound, under setting [4], the “trans after 435 nm illumination of the 365 nm PSS” value is ~70% and 72%; the “trans after 550 nm illumination of the 365 nm PSS” value was ~70%.

On to `CS(=O)(=O)Nc1ccc2nc(Cc3ccc(/N=N/c4ccccc4)cc3)[nH]c2c1` [OptoNAM-4, (E)-N-(2-(4-(phenyldiazenyl)benzyl)-1H-benzo[d]imidazol-6-yl)methanesulfonamide], for which the “trans after 440 nm irradiation of the 365 nm PSS” value under setting [1] stood at 100%.
